US20160214972A1, “COMPOUNDS AND METHODS FOR THE TARGETED DEGRADATION OF ANDROGEN RECEPTOR” (Arvinas, Inc., priority 2015, published 2016)
“Also recorded” adds a separate entry of the source.

Columns and labels:
Androgen Receptor = Androgen Receptor ELISA assay (PathScan AR ELISA) in LNCaP and/or VCaP cells; format: cell-based; conditions: highest percentage of Androgen Receptor degradation observed
VCaP xenograft = experiment: Tumor growth inhibition in VCaP xenograft model; format: in vivo; conditions: castrated CB17 scid mice with VCaP tumors; enzalutamide PO, QD, 30 mpk; Example 163 IP, QD, 30, 10 and 3 mpk
Excerpt: FIG. 6. Tumor growth inhibition in VCaP xenograft model. VCaP cells were implanted into CB17 scid mice subcutaneously. Once the tumors were palpable, the mice were castrated, leading to temporary tumor stasis.
VCaP cells were implanted into CB17 scid mice subcutaneously. Once the tumors were palpable, the mice were castrated, leading to temporary tumor stasis.

AR = biological target: T1, AR (Homo sapiens, UniProt P10275+P40337, T878A); experiment: AR degradation of PROTAC is E3 ligase dependent (LNCaP cells); format: cell-based; conditions: 24 hours
T1 construct: endogenous in cells; host or cells: LNCaP cells
Excerpt: FIG. 7A and FIG. 7B. AR degradation of PROTAC is E3 ligase dependent.

[1] = test system: LNCaP cells transduced with AR F876L construct; experiment: Anti-proliferation in LNCaP F876L (CellTiterGlo); format: cell-based; conditions: Charcoal Stripped Serum media, 7 days
Protocol: FIG. 3. Anti-proliferation in LNCaP F876L. […] LNCaP cells transduced with AR F876L construct were cultured in Charcoal Stripped Serum containing media.
LNCaP cells transduced with AR F876L construct were cultured in Charcoal Stripped Serum containing media. […] CellTiterGlo reagent (Promega) was employed to assess proliferation.

prostate = experiment: Prostate involution in C57B6 mouse model; format: in vivo; conditions: 12-week old male C57BL/6 mice; IP, QD, 1 and 3 mpk for 10 days
Excerpt: FIG. 5. Prostate involution in C57B6 mouse model.

T1 sequence (P10275 whole entry T878A): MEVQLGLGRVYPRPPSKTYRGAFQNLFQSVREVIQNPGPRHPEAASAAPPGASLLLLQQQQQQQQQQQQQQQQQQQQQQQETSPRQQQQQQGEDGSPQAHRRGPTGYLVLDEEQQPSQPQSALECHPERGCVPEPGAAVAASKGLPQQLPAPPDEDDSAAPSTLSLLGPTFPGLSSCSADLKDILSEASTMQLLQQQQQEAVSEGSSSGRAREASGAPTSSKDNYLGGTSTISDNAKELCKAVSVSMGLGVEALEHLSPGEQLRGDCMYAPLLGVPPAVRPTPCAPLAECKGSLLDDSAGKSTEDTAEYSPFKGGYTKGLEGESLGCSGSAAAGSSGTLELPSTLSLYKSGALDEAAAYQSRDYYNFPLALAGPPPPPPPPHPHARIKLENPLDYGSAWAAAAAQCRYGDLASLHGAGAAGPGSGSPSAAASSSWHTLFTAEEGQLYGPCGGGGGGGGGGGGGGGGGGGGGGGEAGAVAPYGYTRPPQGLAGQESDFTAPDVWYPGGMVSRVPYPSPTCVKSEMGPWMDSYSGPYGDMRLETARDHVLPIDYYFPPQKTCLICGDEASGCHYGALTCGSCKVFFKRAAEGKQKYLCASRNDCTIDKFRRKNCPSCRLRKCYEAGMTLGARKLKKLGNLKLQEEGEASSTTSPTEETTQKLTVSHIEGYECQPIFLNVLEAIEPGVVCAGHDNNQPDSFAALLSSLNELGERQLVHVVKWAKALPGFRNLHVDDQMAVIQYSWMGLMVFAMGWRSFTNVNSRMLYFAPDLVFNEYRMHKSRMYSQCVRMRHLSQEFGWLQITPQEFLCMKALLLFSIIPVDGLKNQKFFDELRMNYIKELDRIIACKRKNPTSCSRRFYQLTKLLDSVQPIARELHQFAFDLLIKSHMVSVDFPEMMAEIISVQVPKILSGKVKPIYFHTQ
T1 sequence (P40337 whole entry): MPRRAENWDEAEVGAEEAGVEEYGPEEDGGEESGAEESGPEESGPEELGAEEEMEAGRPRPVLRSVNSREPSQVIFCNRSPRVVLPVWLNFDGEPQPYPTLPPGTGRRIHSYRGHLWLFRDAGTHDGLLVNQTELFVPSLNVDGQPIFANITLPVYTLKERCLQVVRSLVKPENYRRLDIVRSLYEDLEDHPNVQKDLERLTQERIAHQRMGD
T1 sequence (Q15369 whole entry partner): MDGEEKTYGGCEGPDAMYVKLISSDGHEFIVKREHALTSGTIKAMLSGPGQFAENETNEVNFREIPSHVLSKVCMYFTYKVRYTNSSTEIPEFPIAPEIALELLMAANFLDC
T1 sequence (Q15370 whole entry partner): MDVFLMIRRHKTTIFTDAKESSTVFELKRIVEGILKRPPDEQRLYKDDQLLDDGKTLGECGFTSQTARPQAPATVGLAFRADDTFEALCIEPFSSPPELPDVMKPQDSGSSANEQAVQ
T1 sequence (Q13617 whole entry partner): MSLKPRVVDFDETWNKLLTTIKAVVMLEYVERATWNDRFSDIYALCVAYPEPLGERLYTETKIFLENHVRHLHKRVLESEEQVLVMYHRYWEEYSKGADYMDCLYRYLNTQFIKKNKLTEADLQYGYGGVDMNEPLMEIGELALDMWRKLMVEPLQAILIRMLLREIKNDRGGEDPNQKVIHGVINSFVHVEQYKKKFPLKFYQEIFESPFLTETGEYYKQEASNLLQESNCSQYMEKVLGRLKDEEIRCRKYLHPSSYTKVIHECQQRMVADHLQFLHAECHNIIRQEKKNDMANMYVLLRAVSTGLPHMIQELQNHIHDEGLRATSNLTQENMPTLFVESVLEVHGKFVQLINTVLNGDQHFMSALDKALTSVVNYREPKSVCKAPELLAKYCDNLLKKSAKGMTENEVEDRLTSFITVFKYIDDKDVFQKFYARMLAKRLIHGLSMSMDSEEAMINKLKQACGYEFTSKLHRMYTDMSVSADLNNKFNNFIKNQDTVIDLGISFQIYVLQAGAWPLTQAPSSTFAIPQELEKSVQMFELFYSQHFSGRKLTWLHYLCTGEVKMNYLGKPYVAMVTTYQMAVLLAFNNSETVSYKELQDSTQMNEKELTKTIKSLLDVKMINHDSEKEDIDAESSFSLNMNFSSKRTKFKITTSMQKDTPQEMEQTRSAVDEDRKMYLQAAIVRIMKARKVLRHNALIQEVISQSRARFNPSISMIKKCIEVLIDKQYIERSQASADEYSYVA
T1 sequence (P62877 whole entry partner): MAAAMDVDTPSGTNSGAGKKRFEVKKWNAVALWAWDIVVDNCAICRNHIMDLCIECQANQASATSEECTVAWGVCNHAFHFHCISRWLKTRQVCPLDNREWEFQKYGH

Cc1ncsc1-c1ccc(CNC(=O)[C@@H]2C[C@@H](O)CN2C(=O)[C@@H](NC(=O)COCCOCCOc2ccc(-c3ccc(N4C(=S)N(c5ccc(C#N)c(C(F)(F)F)c5)C(=O)C4(C)C)cc3)cc2)C(C)(C)C)cc1 [Example 67, (2S,4R)-1-((S)-2-(2-(2-(2-(4′-(3-(4-cyano-3-(trifluoromethyl)phenyl)-5,5-dimethyl-4-oxo-2-thioxoimidazolidin-1-yl)biphenyl-4-yloxy)ethoxy)ethoxy)acetamido)-3,3-dimethylbutanoyl)-4-hydroxy-N-(4-(4-methylthiazol-5-yl)benzyl)pyrrolidine-2-carboxamide]
LNCaP Dmax (%) (Androgen Receptor): 72.1%

CNC(=O)c1ccc(N2C(=S)N(c3ccc(C#N)c(C(F)(F)F)c3)C(=O)C2(C)C)cc1F [enzalutamide, reference compound]
tumor growth inhibition (VCaP xenograft): Tumor growth inhibition was observed in all treatment arms

Cc1ncsc1-c1ccc(CNC(=O)[C@@H]2C[C@@H](O)CN2C(=O)[C@@H](NC(=O)COCCCOCCCCCOc2ccc(N3C(=S)N(c4ccc(C#N)c(C(F)(F)F)c4)C(=O)C3(C)C)cc2)C(C)(C)C)cc1 [Example 1, (2S,4R)-1-((S)-2-(2-(3-(5-(4-(3-(4-cyano-3-(trifluoromethyl)phenyl)-5,5-dimethyl-4-oxo-2-thioxoimidazolidin-1-yl)phenoxy)pentyloxy)propoxy)acetamido)-3,3-dimethylbutanoyl)-4-hydroxy-N-(4-(4-methylthiazol-5-yl)benzyl)pyrrolidine-2-carboxamide]
AR degradation in LNCaP cells (AR): significant degradation of AR
AR degradation in LNCaP cells in the presence of VHL E3 ligase ligand compound B (AR; 10 uM compound B): greatly diminishes the AR degradation activity
proliferation of LNCaP F876L cells (agonist activity) [1]: did not exhibit agonist activity; also recorded: Anti-proliferation in LNCaP F876L cells observed

Cc1ncsc1-c1ccc(CNC(=O)[C@@H]2C[C@@H](O)CN2C(=O)[C@@H](NC(=O)COCCCCOc2ccc(C(=O)N[C@H]3C(C)(C)[C@H](Oc4ccc(C#N)c(Cl)c4)C3(C)C)cc2)C(C)(C)C)cc1 [Example 163, (2S,4R)-1-[(2S)-3,3-dimethyl-2-{2-[4-(4-{[trans-3-(3-chloro-4-cyanophenoxy)-2,2,4,4-tetramethylcyclobutyl]carbamoyl}phenoxy)butoxy]acetamido}butanoyl]-4-hydroxy-N-{[4-(4-methyl-1,3-thiazol-5-yl)phenyl]methyl}pyrrolidine-2-carboxamide]
prostate weights (prostate involution) (prostate): significant reduction in prostate weights; also recorded: significant prostate involution in mice at very low doses
tumor growth inhibition (VCaP xenograft): Tumor growth inhibition was observed in all treatment arms
